From paper PMC2358886, “Evolution of pharmacologic specificity in the pregnane X receptor” (BMC Evolutionary Biology, 2008)
Read-outs that look alike come from different tables or passages of the source.

How the values were obtained:
human PXR [1] = target: T1, human PXR (Homo sapiens, UniProt O75469); conditions: for hPXR Efficacy: human
T1 sequence (O75469 1-434): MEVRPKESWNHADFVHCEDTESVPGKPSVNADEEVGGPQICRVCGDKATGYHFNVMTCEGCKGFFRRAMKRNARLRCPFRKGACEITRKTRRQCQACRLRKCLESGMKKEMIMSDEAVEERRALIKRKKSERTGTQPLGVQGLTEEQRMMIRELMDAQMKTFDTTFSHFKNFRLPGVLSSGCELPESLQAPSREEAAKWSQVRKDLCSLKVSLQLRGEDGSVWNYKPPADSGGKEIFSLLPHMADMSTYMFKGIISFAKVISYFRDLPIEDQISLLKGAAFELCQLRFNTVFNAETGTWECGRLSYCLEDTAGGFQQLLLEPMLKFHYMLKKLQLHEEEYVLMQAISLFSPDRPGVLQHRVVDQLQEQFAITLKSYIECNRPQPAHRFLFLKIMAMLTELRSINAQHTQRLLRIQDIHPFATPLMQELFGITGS

zebrafish PXR [2] = target: T2, zebrafish PXR (Danio rerio, UniProt A5WYG8)
T2 sequence (A5WYG8 144-430): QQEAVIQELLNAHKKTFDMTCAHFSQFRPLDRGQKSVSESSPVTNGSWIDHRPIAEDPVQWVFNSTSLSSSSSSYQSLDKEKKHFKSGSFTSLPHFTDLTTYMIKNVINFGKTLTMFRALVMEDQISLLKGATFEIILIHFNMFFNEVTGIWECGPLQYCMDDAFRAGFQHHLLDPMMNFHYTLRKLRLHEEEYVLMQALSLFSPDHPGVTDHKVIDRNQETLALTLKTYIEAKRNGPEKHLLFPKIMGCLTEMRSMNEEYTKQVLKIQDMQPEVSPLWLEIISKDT

HepG2 cells [3] = system: HepG2 cells
zebrafish PXR [4] = target: T2, zebrafish PXR; test: cell-based
human PXR [5] = target: T1, human PXR; test: PXR activation luciferase reporter assay, human PXR in HepG2-NTCP cells
chicken PXR = target: T3, chicken PXR (Gallus gallus, UniProt Q9DFH3); conditions: -log(EC50), EC50 in molar units
T3 sequence (Q9DFH3 1-391): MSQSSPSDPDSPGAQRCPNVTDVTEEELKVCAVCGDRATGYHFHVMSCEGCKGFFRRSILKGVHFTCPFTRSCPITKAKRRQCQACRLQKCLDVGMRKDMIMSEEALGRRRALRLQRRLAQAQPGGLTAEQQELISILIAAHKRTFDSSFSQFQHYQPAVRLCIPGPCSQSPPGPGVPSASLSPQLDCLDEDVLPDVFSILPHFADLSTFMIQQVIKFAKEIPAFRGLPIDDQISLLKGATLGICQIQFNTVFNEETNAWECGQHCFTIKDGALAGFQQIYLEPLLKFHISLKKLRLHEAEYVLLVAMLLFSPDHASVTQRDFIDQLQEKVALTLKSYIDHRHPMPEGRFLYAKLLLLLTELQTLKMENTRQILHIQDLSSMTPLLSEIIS

HepG2 cells [6] = test: Toxicity assays in HepG2 cells (MTT and alamar blue reduction); conditions: lowest concentration that produced significant toxicity in the HepG2 cells
[7] = relative to 20 μM 5α-androstan-3α-ol, assigned an efficacy of 1.0
[8] = zfPXR Activity, -log(EC50), EC50 in molar units, activation of zebrafish PXR
[9] = hPXR Activity, -log(EC50), EC50 in molar units, activation of human PXR
[10] = -log(EC50), EC50 in molar units, activation of zebrafish PXR

| SMILES | Toxicity (HepG2 cells [3]) | EC50 (human PXR [5]; [9]) [µM] | EC50 (zebrafish PXR [4]) [µM] | zfPXR Efficacy (zebrafish PXR [2]; zebrafish) | Toxicity (HepG2 cells [3]; human, 24 hr) [µM] | also measured |
| --- | --- | --- | --- | --- | --- | --- |
| C[C@]12CCC(=O)C=C1CC[C@@H]1[C@@H]2CC[C@]2(C)C(=O)CC[C@@H]12 [AN7, 4-Androsten-3,17-dione] | None | 20.4 | – | – | – | hPXR Efficacy (human PXR [1]): 0.59; zfPXR Efficacy (zebrafish PXR [2]; [7]): 0.14; EC50 (zebrafish PXR [4]; Zebrafish PXR EC50 (concentration class, Figure 2B), class read from box colour, same key as Figure 2A): < 10 µM; EC50 (zebrafish PXR [4]; [8]): 3.63 µM; EC50 (human PXR [5]; Human PXR EC50 (concentration class, Figure 2A), class read from box colour against the key of Figure 2): 11 to 50 µM |
| C[C@]12CC[C@@H](O)C[C@@H]1CC[C@@H]1[C@@H]2CC[C@]2(C)C=CC[C@@H]12 [AN10, 5α-Androst-16-en-3α-ol] | None | – | 3.63 | – | – | zfPXR Efficacy (zebrafish PXR [2]; [7]): 1.02; EC50 (human PXR [5]): 5.5 µM |
| C[C@@]12CCC[C@H]1[C@@H]1CC[C@H]3C[C@@H](O)CC[C@]3(C)[C@H]1CC2 [AN20, 5α-Androstan-3β-ol] | – | 0.794 | 2.69 | 1.66 | 50 | hPXR Efficacy (human PXR [1]): 0.43 |
| C[C@@]12CCC[C@H]1[C@@H]1CC[C@@H]3C[C@H](O)CC[C@]3(C)[C@H]1CC2 [AN23, 5β-Androstan-3α-ol] | None | 1.41 | 2.57 | 0.33 | – | hPXR Efficacy (human PXR [1]): 1.12 |
| C[C@@]12C=CC[C@H]1[C@@H]1CCC3=CC(=O)CC[C@]3(C)[C@H]1CC2 [AN24, Androst-4,16-dien-3-one] | – | – | 1.1 | 0.17 | 100 | EC50 (human PXR [5]): 7.08 µM |
| C[C@@]12C=CC[C@H]1[C@@H]1CC=C3C[C@@H](O)CC[C@]3(C)[C@H]1CC2 [AN25, Androst-5,16-dien-3β-ol] | – | – | 2.51 | 1.50 | 100 | hPXR Activity (human PXR [1]): None |
| C[C@H](CCC(=O)NCCS(=O)(=O)O)[C@H]1CC[C@H]2[C@@H]3[C@H](O)C[C@@H]4C[C@H](O)CC[C@]4(C)[C@H]3CC[C@]12C [BI007, Taurochenodeoxycholic acid] | – | – | – | – | – | Chicken PXR Activity (chicken PXR): No effect |
| C[C@H](CCC(=O)O)[C@H]1CC[C@H]2[C@@H]3[C@H](O)C[C@H]4C[C@H](O)CC[C@]4(C)[C@H]3C[C@H](O)[C@]12C [BI031, 5α-Cholanic acid-3α,7α,12α-triol] | – | – | – | – | – | zfPXR Activity (zebrafish PXR [2]; [10]): None; Chicken PXR Activity (chicken PXR): No effect; Toxicity (HepG2 cells [6]): 200 µM; hPXR Activity (human PXR [5]; -log(EC50), EC50 in molar units, activation of human PXR): None |
| C[C@]12CC[C@@H]3c4cc(O)c(O)cc4CC[C@H]3[C@@H]1CCC2=O [ES7, 1,3,5(10)-Estratrien-2,3-diol-17-one] | None | – | 1.82 | 0.19 | – | EC50 (human PXR [5]): 3.63 µM |
| CCCCOC(=O)c1ccccc1 [MI5, Butylbenzoate] | – | – | – | – | – | hPXR Activity (human PXR [1]): None; zfPXR Activity (zebrafish PXR [2]; [10]): None; Toxicity (HepG2 cells [6]): None |
| CC(C(=O)O)c1ccc(-c2ccccc2)c(F)c1 (stereo not drawn) [MI15, Flurbiprofen] | None | – | 79.4 | 0.53 | – | hPXR Efficacy (human PXR [1]): 1.59 |
| O=C(O)Cc1cccc(OCCCN(Cc2cccc(C(F)(F)F)c2Cl)CC(c2ccccc2)c2ccccc2)c1 [MI18, GW3965] | – | – | – | – | – | hPXR Activity (human PXR [1]): None; zfPXR Activity (zebrafish PXR [2]): None; Toxicity (HepG2 cells [6]): 10 µM |
| NC(=O)N1c2ccccc2CC(=O)c2ccccc21 [MI23, Oxcarbazepine] | – | 18.2 | ~20 | ~0.30 | 200 | – |
| CCCOC(=O)c1ccc(O)cc1 [MI27, n-Propyl-4-hydroxybenzoate] | – | 30.9 | 52.5 | 0.31 | 100 | – |
| Cc1c(O)cc2c(c1C)O[C@](C)(CCC[C@H](C)CCC[C@H](C)CCCC(C)C)CC2 [MI40, γ-Tocopherol] | – | – | – | – | – | hPXR Activity (human PXR [1]): None; zfPXR Activity (zebrafish PXR [2]; [10]): None; Toxicity (HepG2 cells [6]): 100 µM |
| C#C[C@]1(O)CC[C@H]2[C@@H]3CCC4=CC(=O)CC[C@@H]4[C@H]3CC[C@@]21CC [PR27, 4-Estren-17α-ethynyl-18-homo-17β-ol-3-one] | None | – | – | – | – | zfPXR Efficacy (zebrafish PXR [2]; [7]): 0.86; EC50 (zebrafish PXR [4]; [8]): 1 µM; EC50 (human PXR [5]; hPXR Activity): 4.27 µM |
